One assay has as its system TAp73. The assay can be described thus: Western blotting for TAp73 in TNBC cell lines. In kind it is cell-based, human. To be noted: five TNBC cell lines. How it is done:
FIGS. 28A-28L show TAp73 is activated by the MDM2-PROTAC YX-02-030 and mediates apoptosis of p53-inactivated TNBC cells. A-C, RNA-seq (triplicates) was performed on MDA-MB-231 cells treated with the MDM2-PROTAC YX-02-030 (6 μM, 16 hr) or DMSO vehicle control or expressing MDM2 shRNA or non-targeting control shRNA (48 hr). A, Pathway analysis using Hallmark gene signatures. B, Heatmap of p53 family target genes of individual samples (3 each). C, Spearman's correlation of differentially expressed p53 family target genes between PROTAC-treated relative to DMSO vehicle control and MDM2 shRNA relative to non-targeting shRNA control; Spearman's correlation coefficient (p) and P-value indicated. D, qRT-PCR analysis (triplicate, 6 μM, 16 hr) to validate RNA-seq results. […] I, ChIP for TAp73 was performed with MDA-MB-231 cells following treatment with the MDM2-PROTAC YX-02-030 (6 μM, 16 hr) or DMSO vehicle control, and enrichment of TAp73 (triplicate; first normalized to input DNA then IgG control) was determined at the loci indicated. J and K, After 48 hr, MDA-MB-231 cells expressing two independent TAp73 shRNA or non-targeting shRNA (shNT) control were treated with MDM2-PROTAC YX-02-030 or DMSO vehicle control (6 μM, 16 hr). p53/TAp73 target genes were evaluated by Western blotting (J) and qRT-PCR (K, triplicate). […]
(Immunoblotting shows a protein as a band on a membrane.)

For a further assay, the target named is T1, VHL complex (Homo sapiens, UniProt P40337).
T1 construct: purchased R&D systems E3-655-025
T1 sequence (P40337 whole entry): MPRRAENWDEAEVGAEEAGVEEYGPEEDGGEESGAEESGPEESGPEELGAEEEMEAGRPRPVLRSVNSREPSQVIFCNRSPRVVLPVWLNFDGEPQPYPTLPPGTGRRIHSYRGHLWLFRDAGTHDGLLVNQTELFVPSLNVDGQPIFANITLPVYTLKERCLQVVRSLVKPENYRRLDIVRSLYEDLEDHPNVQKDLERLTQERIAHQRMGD
T1 sequence (Q15370 whole entry partner): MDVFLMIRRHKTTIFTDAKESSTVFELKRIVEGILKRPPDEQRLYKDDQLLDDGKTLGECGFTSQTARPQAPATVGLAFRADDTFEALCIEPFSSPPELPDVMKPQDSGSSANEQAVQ
T1 sequence (Q15369 whole entry partner): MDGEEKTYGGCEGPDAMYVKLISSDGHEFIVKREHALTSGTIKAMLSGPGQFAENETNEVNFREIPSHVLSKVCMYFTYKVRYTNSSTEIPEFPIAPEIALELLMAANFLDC
T1 sequence (Q13617 whole entry partner): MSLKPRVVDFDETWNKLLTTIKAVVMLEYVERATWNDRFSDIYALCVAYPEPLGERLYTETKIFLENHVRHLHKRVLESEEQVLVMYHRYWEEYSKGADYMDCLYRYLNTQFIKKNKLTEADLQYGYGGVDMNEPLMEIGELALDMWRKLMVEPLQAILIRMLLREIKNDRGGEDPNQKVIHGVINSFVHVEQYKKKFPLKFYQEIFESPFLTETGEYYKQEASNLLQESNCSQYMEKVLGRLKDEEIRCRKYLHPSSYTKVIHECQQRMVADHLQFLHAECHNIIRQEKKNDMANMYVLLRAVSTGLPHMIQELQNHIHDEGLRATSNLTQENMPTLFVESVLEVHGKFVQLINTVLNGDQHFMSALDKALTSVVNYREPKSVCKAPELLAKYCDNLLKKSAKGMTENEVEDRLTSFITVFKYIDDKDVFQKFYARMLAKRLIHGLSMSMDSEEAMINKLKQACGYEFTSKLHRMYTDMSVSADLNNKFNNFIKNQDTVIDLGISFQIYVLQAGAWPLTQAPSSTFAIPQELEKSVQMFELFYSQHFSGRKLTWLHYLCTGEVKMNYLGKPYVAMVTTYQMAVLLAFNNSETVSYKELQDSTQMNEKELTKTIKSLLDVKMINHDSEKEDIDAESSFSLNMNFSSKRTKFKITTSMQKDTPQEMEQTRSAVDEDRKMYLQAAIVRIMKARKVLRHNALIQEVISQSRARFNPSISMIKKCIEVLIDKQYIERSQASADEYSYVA
T1 sequence (P62877 whole entry partner): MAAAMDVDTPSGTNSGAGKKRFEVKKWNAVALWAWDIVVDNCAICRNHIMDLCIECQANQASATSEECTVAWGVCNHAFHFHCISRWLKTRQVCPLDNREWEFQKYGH
The assay is described as follows: Inhibition of HIF-1α peptide binding to the VHL complex using HTRF (Table 3). To be noted: mean ± S.E.M. of three replications; read-out: VHL-HIFa peptide IC50. How it is done: Assays contained 2 nM of HIS-VHL complex (R&D systems, E3-655-025), 2 nM of biotin-hydroxyproline-HIF1α peptide (Biotin-[…] (SEQ ID NO: 2), X=hydroxyproline), 0.3 nM anti-HIS-Tb HTRF donor antibody and 4 nM streptavidin-d2 HTRF acceptor (PerkinElmer) in a final volume of 10 μL of 25 mM HEPES, pH 7.4, 150 mM NaCl, 5 mM DTT, 0.005% Tween20 in white low volume 384-well plates. Both HIS-VHL complex and biotin-HIF1α peptide were pre-incubated with their respective HTRF antibodies for 15 min. Test compounds were solubilized at 10 mM in DMSO and concentration series was added to the assay plate using the Echo 650 acoustic liquid handling system by direct dilution. The final amount of DMSO added to the assay was 100 nL […]. Compounds were pre-incubated with HIS-VHL complex before the addition of the biotin-HIF1α peptide. After a 2 hr incubation, the HTRF signal was measured using the ClarioStar plate reader (BMG Labtech). […] IC50 values were determined from nonlinear regression fits of a data to a four parameter dose-response equation using XLFit (IDBS). Data are the means±S.E.M. of three replications. The data is described in Table 3 above.
Background: In TR-FRET formats the signal depends on donor and acceptor labels being close together.

The target in a further assay is MDM2-p53 (Homo sapiens, UniProt Q00987). The assay can be described thus: Inhibition of MDM2 binding to p53 using HTRF (Table 3). The conditions noted are these: mean ± S.E.M. of three replications.
Sequence of MDM2-p53 (Q00987 whole entry): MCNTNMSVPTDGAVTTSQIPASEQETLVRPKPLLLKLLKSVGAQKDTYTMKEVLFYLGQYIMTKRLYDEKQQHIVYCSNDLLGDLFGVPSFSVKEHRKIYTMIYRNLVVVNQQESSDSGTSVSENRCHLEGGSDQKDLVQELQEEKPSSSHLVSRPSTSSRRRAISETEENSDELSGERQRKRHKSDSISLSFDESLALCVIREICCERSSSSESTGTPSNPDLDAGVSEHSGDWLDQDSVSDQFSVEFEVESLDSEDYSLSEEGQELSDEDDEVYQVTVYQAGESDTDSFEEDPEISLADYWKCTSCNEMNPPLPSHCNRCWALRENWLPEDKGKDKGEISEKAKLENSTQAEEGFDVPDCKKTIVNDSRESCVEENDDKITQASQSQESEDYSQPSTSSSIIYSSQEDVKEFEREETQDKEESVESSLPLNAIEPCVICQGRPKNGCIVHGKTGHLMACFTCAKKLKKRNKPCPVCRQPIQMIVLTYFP
In assay [1] the test system is p53-null mouse sarcoma cells. The assay can be described thus: Murine Mdm2+/+ p53-null sarcoma cells, Western blot and MTT. Format: cell-based. The conditions noted are these: increasing concentrations, MTT assay, 48 hrs.

The structures appear in SMILES notation.

Procedure for MDM2-p53: Test compounds were solubilized at 10 mM in DMSO and concentration series was added to the assay plate using the Echo 650 acoustic liquid handling system by direct dilution. The final amount of DMSO added to the assay was 100 nL (0.1%). Compounds were pre-incubated with 5 μL of GST-MDM2 for 15-30 min before 5 μL of HIS-p53/anti-HIS-d2 was added to the assay. After a 2 hr incubation, the HTRF signal was measured using the ClarioStar plate reader (BMG Labtech). […] IC50 values were determined from nonlinear regression fits of a data to a four parameter dose-response equation using XLFit (IDBS). Data are the means±S.E.M. of three replications.

Regarding `CCOc1cc(C(C)(C)C)ccc1C1=NC(C)(c2ccc(Cl)cc2)C(C)(c2ccc(Cl)cc2)N1C(=O)N1CCN(CC(=O)NCCOCCOCCOCC(=O)N[C@H](C(=O)N2C[C@H](O)C[C@H]2C(=O)NCc2ccc(-c3scnc3C)cc2)C(C)(C)C)CC1` (stereo in doubt) [YX-02-030, (2S,4R)-1-((S)-2-(tert-butyl)-17-(4-((4S,5R)-2-(4-(tert-butyl)-2-ethoxyphenyl)-4,5-bis(4-chlorophenyl)-4,5-dimethyl-4,5-dihydro-1H-imidazole-1-carbonyl)piperazin-1-yl)-4,16-dioxo-6,9,12-trioxa-3,15-diazaheptadecanoyl)-4-hydroxy-N-(4-(4-methylthiazol-5-yl)benzyl)pyrrolidine-2-carboxamide], in the assay with TAp73, the TAp73 protein level result is “levels of TAp73 protein increased”.
The IC50 is the concentration that gives 50% inhibition. Consider `CCOc1cc(C(C)(C)C)ccc1C1=N[C@@](C)(c2ccc(Cl)cc2)[C@@](C)(c2ccc(Cl)cc2)N1C(=O)N1CCN(CC(=O)O)CC1` (racemic) [YX-02-023, 2-(4-((4S,5R)-2-(4-(tert-butyl)-2-ethoxyphenyl)-4,5-bis(4-chlorophenyl)-4,5-dimethyl-4,5-dihydro-1H-imidazole-1-carbonyl)piperazin-1-yl)acetic acid], for which the values for the half-inhibitory concentration (IC50) at VHL complex and at MDM2-p53 were above 10000 nM and 11 ± 1.3 nM, respectively. Besides, in assay [1], the “killing of p53-null sarcoma cells” value was “not”.

Source of the values: patent US20260053931A1, “MDM2 TARGETING PROTACS” (THE WISTAR INSTITUTE OF ANATOMY AND BIOLOGY, priority 2023, published 2026).
